Laboratory results: PubChem BioAssay (NCI)
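Following 48 hours of exposure in 96-well plates, responses at five concentrations were used to interpolate endpoints linearly. GI50 = concentration required for 50% inhibition of growth. Definition used: TGI = concentration required for complete inhibition of growth.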 Peptide text beside a SMILES is read from it. * marks the point of attachment. OSu = O=C1CCC(=O)N1O*; OBn = c1ccc(CO*)cc1; Bn = c1ccc(C*)cc1

Tests used:
Assay in all cases: NCI tumour cell line growth inhibition, 48 h
[1] = tested on: MCF7 breast
[2] = tested on: SF-295 CNS
[3] = tested on: OVCAR-3 ovarian
[4] = tested on: ACHN renal
[5] = tested on: M14 melanoma
[6] = tested on: OVCAR-8 ovarian
[7] = tested on: TK-10 renal
[8] = tested on: A549 NSCLC
[9] = tested on: UACC-257 melanoma
[10] = tested on: A498 renal

In the case of `c1ccc2nn(C3CCCCO3)nc2c1` (stereo not given), the TGI [1] is reported as > 100 µM, the TGI [2] is reported as > 100 µM and the TGI [3] is reported as > 100 µM. For the same molecule, the TGI [4] was > 100 µM, the TGI [5] was > 100 µM and the TGI [6] was > 100 µM. The TGI [7] was > 100 µM, the TGI [8] was > 100 µM and the TGI [9] was > 100 µM.

With `Cc1ccc(Nc2ccc(Nc3ccc(C)cc3S(=O)(=O)O)c3c2C(=O)c2ccccc2C3=O)c(S(=O)(=O)O)c1` the TGI [3] was > 100 µM, the TGI [4] was > 100 µM and the TGI [5] was > 100 µM. For the same molecule, the TGI [6] was > 100 µM, the TGI [7] was > 100 µM and the TGI [8] was > 100 µM. The TGI [9] was > 100 µM and the TGI [10] was > 100 µM.

Molecule `COC(=O)C(N)CCCC(N)C(=O)NC(C)C(=O)NC(CCC(=O)NCCCNc1ccc([N+](=O)[O-])c2[nH]c3ccccc3c(=O)c12)C(N)=O` (stereo not given) has a TGI [2] of 20.9 µM, a TGI [3] of 24.9 µM and a TGI [4] of 16.2 µM. The TGI [5] was 17.9 µM, the TGI [6] was 13.9 µM and the TGI [7] was 23.2 µM. For the same molecule, the TGI [8] was 12.3 µM, the TGI [9] was 23.2 µM and the TGI [10] was 30.7 µM.

`COc1c(Cl)c(Cl)c(OC)c2c1C(=O)C=CC2=O` gave a TGI [2] of 48.8 µM, a TGI [3] of 31.6 µM and a TGI [4] of 29.2 µM. It also gave a TGI [5] of 43.3 µM, a TGI [6] of 32.1 µM and a TGI [7] of 41.9 µM. The TGI [8] was > 100 µM, the TGI [9] was 35.4 µM and the TGI [10] was > 100 µM.

`CC1(CO)C(=O)OC12CCCCC2` (stereo not given) was tested, and the TGI [2] was > 100 µM, the TGI [3] was > 100 µM and the TGI [5] was > 100 µM. For the same molecule, the TGI [6] was > 100 µM, the TGI [7] was > 100 µM and the TGI [8] was > 100 µM. The TGI [9] was > 100 µM and the TGI [10] was > 100 µM.

For `Cn1c(=O)c2[nH]c(-n3nc(-c4ccccc4)cc3N)nc2n(C)c1=O`, the TGI [1] was > 100 µM, the TGI [2] was > 100 µM and the TGI [3] was > 100 µM. It also gave a TGI [4] of 37 µM, a TGI [5] of 50 µM and a TGI [6] of 97.7 µM. The TGI [7] was > 100 µM, the TGI [8] was > 100 µM and the TGI [10] was 27.9 µM.

`CC1=CC(=O)/C(=C/N2CCNC2=S)C(=O)O1` was tested, and the TGI [1] was > 100 µM, the TGI [2] was > 100 µM and the TGI [4] was > 100 µM. The TGI [5] was > 100 µM, the TGI [6] was > 100 µM and the TGI [7] was > 100 µM. The TGI [8] was > 100 µM, the TGI [9] was > 100 µM and the TGI [10] was > 100 µM.

`CC(=O)N1C(OCc2ccccc2)CCN1c1ccccc1` (stereo not given) was tested, and the TGI [2] was > 10 µM, the TGI [3] was > 10 µM and the TGI [4] was > 10 µM. The TGI [5] was > 10 µM, the TGI [6] was > 10 µM and the TGI [7] was > 10 µM. For the same molecule, the TGI [8] was > 10 µM and the TGI [9] was > 10 µM.

In the case of `CC(C)CC(NC(=O)C(N)CCC(=O)OCc1ccccc1)C(=O)NC(COCc1ccccc1)C(=O)NC(Cc1ccccc1)C(=O)ON1C(=O)CCC1=O` (stereo not given) (H-E(OBn)LS(Bn)F-OSu; configuration not given here), the TGI [1] is reported as 78.5 µM, the TGI [2] is reported as 62.7 µM and the TGI [4] is reported as > 100 µM. For the same molecule, the TGI [5] was > 100 µM, the TGI [6] was > 100 µM and the TGI [7] was 73.8 µM. The TGI [8] was > 100 µM and the TGI [9] was 66.1 µM.

In the case of `CCOC(=O)CN(Cc1ccccc1)Cc1c(C(=O)c2ccccc2)c2ccccc2n1C(=O)c1ccccc1`, the TGI [2] is reported as > 100 µM, the TGI [3] is reported as > 100 µM and the TGI [4] is reported as > 100 µM. For the same molecule, the TGI [5] was > 100 µM, the TGI [6] was > 100 µM and the TGI [7] was > 100 µM. The TGI [8] was > 100 µM and the TGI [10] was > 100 µM.

`O=C1CC(Cl)c2c(Cl)sc(Cl)c21` (stereo not given) was tested, and the TGI [1] was 2.11 µM, the TGI [2] was 31.7 µM and the TGI [4] was 3.45 µM. It also gave a TGI [5] of 3.94 µM, a TGI [6] of 3.32 µM and a TGI [7] of 4.51 µM. For the same molecule, the TGI [8] was 12.7 µM, the TGI [9] was 9.25 µM and the TGI [10] was 27.3 µM.

In the case of `O=c1cc2cc(O)[nH]c(=O)c2c(O)[nH]1`, the TGI [2] is reported as > 100 µM, the TGI [3] is reported as > 100 µM and the TGI [5] is reported as > 100 µM. For the same molecule, the TGI [7] was > 100 µM, the TGI [8] was > 100 µM and the TGI [9] was > 100 µM. For the same molecule, the TGI [10] was > 100 µM.

`Cc1nn(C(=O)c2ccc(Cl)cc2)c2c1C(c1ccco1)SC(N)=N2` (stereo not given) was tested, and the TGI [1] was > 10 µM, the TGI [2] was > 10 µM and the TGI [3] was > 10 µM. For the same molecule, the TGI [4] was > 10 µM, the TGI [5] was > 10 µM and the TGI [6] was > 10 µM. For the same molecule, the TGI [7] was > 10 µM, the TGI [8] was > 10 µM and the TGI [9] was > 10 µM.

With `CC(=O)OC1C(O)C(C)OC(OC(=O)C2CCC3C(C2)OC2(CC(OC(=O)/C=C/c4ccccc4)C(C)CO2)C32CO2)C1OC1OC(C)C(O)C(O)C1O` (stereo not given) the TGI [1] was 0.0917 µM, the TGI [2] was 0.542 µM and the TGI [3] was 0.0917 µM. It also gave a TGI [6] of 0.823 µM, a TGI [8] of 1.3 µM and a TGI [9] of 0.0726 µM. It also gave a TGI [10] of 0.315 µM.

`Cc1oc2c(C)c3oc(=O)cc(C)c3cc2c1CN` was tested, and the TGI [2] was > 100 µM, the TGI [3] was > 100 µM and the TGI [4] was > 100 µM. The TGI [5] was > 100 µM, the TGI [6] was > 100 µM and the TGI [7] was 86.9 µM. The TGI [8] was > 100 µM, the TGI [9] was > 100 µM and the TGI [10] was > 100 µM.

With `COc1cc(C(CC(OC)OC)=C(C#N)C#N)cc(OC)c1OC` the TGI [2] was 62.9 µM, the TGI [3] was 73 µM and the TGI [4] was > 100 µM. For the same molecule, the TGI [6] was 73 µM, the TGI [7] was > 100 µM and the TGI [8] was > 100 µM. For the same molecule, the TGI [9] was 36.9 µM and the TGI [10] was 40 µM.

For `CCc1cc2c(oc3c4ccccc4ccc23)c(=O)[nH]1`, the TGI [1] was > 10 µM, the TGI [2] was > 10 µM and the TGI [3] was > 10 µM. The TGI [4] was > 10 µM, the TGI [5] was > 10 µM and the TGI [6] was > 10 µM. For the same molecule, the TGI [7] was > 10 µM, the TGI [8] was > 10 µM and the TGI [9] was > 10 µM.

`NC(CNc1ccc(O)cc1)C(=O)O` (stereo not given) was tested, and the TGI [2] was > 100 µM, the TGI [3] was > 100 µM and the TGI [4] was > 100 µM. For the same molecule, the TGI [5] was > 100 µM, the TGI [6] was > 100 µM and the TGI [7] was > 100 µM. The TGI [8] was > 100 µM, the TGI [9] was > 100 µM and the TGI [10] was > 100 µM.

`C/C(=C/c1c(C)[nH]c(=O)[nH]c1=O)C(=O)O` was tested, and the TGI [1] was > 1380 µM, the TGI [2] was > 1380 µM and the TGI [3] was > 1380 µM. The GI50 [6] was > 1380 µM, the TGI [6] was > 1380 µM and the TGI [8] was > 1380 µM. For the same molecule, the TGI [9] was > 1380 µM and the TGI [10] was > 1380 µM.

With `CC(=O)C(C(=O)C(C)(C)C)C(=O)C(C)(C)C` the TGI [1] was > 100 µM, the TGI [2] was > 100 µM and the TGI [4] was > 100 µM. For the same molecule, the TGI [5] was > 100 µM, the TGI [6] was > 100 µM and the TGI [7] was > 100 µM. For the same molecule, the TGI [8] was > 100 µM and the TGI [9] was > 100 µM.

With `COc1cc(C)cc(OC)c1/C=C/C(=O)O` the TGI [2] was > 100 µM, the TGI [3] was 87.6 µM and the TGI [4] was > 100 µM. The TGI [5] was > 100 µM, the TGI [6] was > 100 µM and the TGI [7] was > 100 µM. The TGI [8] was > 100 µM, the TGI [9] was > 100 µM and the TGI [10] was > 100 µM.

In the case of `CC(CC(C)(C)[N+](C)(C)C)[N+](C)(C)C` (stereo not given), the TGI [1] is reported as > 100 µM, the TGI [2] is reported as > 100 µM and the TGI [3] is reported as > 100 µM. For the same molecule, the TGI [4] was > 100 µM, the TGI [5] was > 100 µM and the TGI [6] was > 100 µM. For the same molecule, the TGI [7] was > 100 µM, the TGI [8] was > 100 µM and the TGI [9] was > 100 µM.

For `COc1ccc(/C=C/C(c2cc(OC)c(OC)c(OC)c2)n2cncn2)cc1O` (stereo not given), the GI50 [1] was 0.033 µM, the TGI [1] was > 100 µM and the GI50 [4] was 0.0578 µM. For the same molecule, the TGI [4] was > 100 µM, the GI50 [5] was 0.0287 µM and the TGI [5] was 5.12 µM. For the same molecule, the GI50 [7] was 21.2 µM, the TGI [7] was > 100 µM and the GI50 [8] was 4.56 µM. The TGI [8] was > 100 µM, the GI50 [9] was > 100 µM and the TGI [9] was > 100 µM. For the same molecule, the GI50 [10] was 3.13 µM and the TGI [10] was 9.09 µM.
